We go through 20 compounds from US20030073850A1, “4-Imidazole derivatives of benzyl and restricted benzyl sulfonamides, sulfamides, ureas, carbamates, and amides and their use” (priority 1998, published 2003).

Data set [1] deals with T1, α1d (rat receptor expressed in mouse fibroblasts) (Rattus norvegicus, UniProt P23944).
T1 construct: expressed in transfected cells; host or cells: mouse fibroblasts
T1 sequence (P23944 1-561): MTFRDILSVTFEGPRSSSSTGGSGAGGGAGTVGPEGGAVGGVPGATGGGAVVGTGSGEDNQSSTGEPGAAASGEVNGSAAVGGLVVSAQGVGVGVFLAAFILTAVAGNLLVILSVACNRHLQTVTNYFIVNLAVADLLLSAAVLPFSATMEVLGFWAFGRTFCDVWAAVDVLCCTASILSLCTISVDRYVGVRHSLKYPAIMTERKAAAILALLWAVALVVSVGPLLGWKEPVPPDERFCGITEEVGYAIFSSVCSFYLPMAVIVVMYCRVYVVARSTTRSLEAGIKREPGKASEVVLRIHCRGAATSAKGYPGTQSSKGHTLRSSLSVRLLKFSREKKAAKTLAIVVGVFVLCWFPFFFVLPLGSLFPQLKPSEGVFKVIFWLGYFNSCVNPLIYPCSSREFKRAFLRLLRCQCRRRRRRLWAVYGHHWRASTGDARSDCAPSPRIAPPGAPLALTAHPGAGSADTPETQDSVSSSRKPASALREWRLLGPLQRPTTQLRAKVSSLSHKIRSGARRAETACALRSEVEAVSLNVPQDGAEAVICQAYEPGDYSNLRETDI
In words: Radioligand binding, [3H]-prazosin, α1d. The procedure:
(§1) For purposes of discussing a, adrenoceptor subtypes, the IUPHAR convention of using lower case letters to define molecular clones and upper case letters to indicate pharmacologically defined adrenoceptors has been followed. Compounds of formula I were evaluated in radioligand binding assays specific for α1A (rat submaxillary gland), α1b (hamster receptor expressed in mouse fibroblasts) and α1d (rat receptor expressed in mouse fibroblasts) using [^3H]-prazosin as the radioligand as described in Knepper, et al. J. Pharm.

In data set [2] the target is T2, α1b (hamster receptor expressed in mouse fibroblasts) (Mesocricetus auratus, UniProt P18841).
T2 construct: expressed in transfected cells; host or cells: mouse fibroblasts
T2 sequence (P18841 1-515): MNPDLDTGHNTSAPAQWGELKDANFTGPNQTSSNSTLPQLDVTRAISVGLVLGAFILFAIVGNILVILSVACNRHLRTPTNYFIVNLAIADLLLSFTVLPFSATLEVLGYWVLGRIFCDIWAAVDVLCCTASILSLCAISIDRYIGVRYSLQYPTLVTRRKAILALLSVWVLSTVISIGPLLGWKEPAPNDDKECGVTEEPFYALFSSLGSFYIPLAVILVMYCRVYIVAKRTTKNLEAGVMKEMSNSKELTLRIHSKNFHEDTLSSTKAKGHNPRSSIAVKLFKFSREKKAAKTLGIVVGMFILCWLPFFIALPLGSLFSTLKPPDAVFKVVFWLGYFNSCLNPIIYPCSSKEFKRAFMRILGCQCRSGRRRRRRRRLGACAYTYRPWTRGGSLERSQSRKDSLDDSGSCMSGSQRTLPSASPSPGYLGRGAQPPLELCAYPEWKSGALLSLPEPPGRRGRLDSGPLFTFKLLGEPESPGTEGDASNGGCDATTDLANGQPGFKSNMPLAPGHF
In words: Radioligand binding, [3H]-prazosin, α1b. The procedure:
as §1

Data set [3] deals with T3, α1A (rat submaxillary gland) (Rattus norvegicus, UniProt P43140).
T3 construct: α1A (rat submaxillary gland); from tissue; host or cells: rat submaxillary gland
T3 sequence (P43140 1-466): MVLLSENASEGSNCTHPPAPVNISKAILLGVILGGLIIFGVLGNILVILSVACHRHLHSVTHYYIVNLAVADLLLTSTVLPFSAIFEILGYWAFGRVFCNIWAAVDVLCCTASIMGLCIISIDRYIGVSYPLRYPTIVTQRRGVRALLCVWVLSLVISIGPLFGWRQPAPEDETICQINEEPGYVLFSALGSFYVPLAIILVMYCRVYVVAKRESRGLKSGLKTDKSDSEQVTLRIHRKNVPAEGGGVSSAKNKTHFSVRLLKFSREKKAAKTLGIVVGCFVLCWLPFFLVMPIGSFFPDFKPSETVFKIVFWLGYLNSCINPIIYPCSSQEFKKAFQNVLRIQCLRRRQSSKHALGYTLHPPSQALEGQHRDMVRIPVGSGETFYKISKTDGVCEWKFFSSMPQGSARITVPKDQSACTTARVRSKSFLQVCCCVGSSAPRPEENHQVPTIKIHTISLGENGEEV
In words: Radioligand binding, [3H]-prazosin, α1A. How it is done:
as §1

Where [4] appears, read: rat receptor expressed in mouse fibroblasts, [3H]-prazosin, read-out: Radioligand Binding Ki α1d (Rat).
Where [5] appears, read: hamster receptor expressed in mouse fibroblasts, [3H]-prazosin, read-out: Radioligand Binding Ki α1b (Hamster).

Structures can show the parent of a compound that is named as a salt. Where two headings read alike, the source gives them in different places.

As usually defined, the Ki is the equilibrium dissociation constant of an inhibitor or competing ligand from its target. A word on the melting point: it is the temperature of the solid-liquid transition.

Turning to `O=S(=O)(CC(F)(F)F)Nc1cccc2c1OCCC2c1c[nH]cn1` (single isomer, unassigned) [Example 88, 2,2,2-trifluoro-N-[4-(1H-imidazol-4-yl)-3,4-dihydro-2H-chromen-8-yl]ethanesulfonamide], the inhibition constant (Ki) in data set [1] (setting [4]) was determined as 10 µM; in data set [2] (setting [5]), 10 µM; in data set [3] it was 0.573 µM.
`O=S(=O)(CC(F)(F)F)Nc1cccc2c1CCCC2c1c[nH]cn1` (single isomer, unassigned; (+)) [Example 36, (+)-N-[5,6,7,8-tetrahydro-5-(1H-imidazol-4-yl)-1-napbthalenyl]-2,2,2-trifluoroethanesulfonamide] yielded a melting point greater than 260 °C. The Ki in data set [1] (setting [4]) was 10 µM.
`CS(=O)(=O)Nc1ccc(O)c2c1CCCC2c1c[nH]cn1.O=C(O)/C=C\C(=O)O` (stereo not drawn) [Example 24, N-[5,6,7,8-tetrahydro-4-hydroxy-5-(1H-imidazol-4-yl)-1-naphthalenyl]methanesulfonamide, Maleate] had a melting point of 127 to 131 °C. The Ki in data set [1] (setting [4]) was 10 µM. The Ki in data set [2] (setting [5]) came to 10 µM.
As to `CCS(=O)(=O)Nc1ccc(OC)c2c1CCCC2c1c[nH]cn1` (stereo not drawn) [Example 25, N-[5,6,7,8-tetrahydro-(1H-imidazol-4-yl)-4-methoxy-1-naphthalenyl]ethanesulfonamide, Maleate], the Ki in data set [1] (setting [4]) and in data set [2] (setting [5]) was 10 µM each time.
`CCS(=O)(=O)Nc1cccc2c1CCCCC2c1c[nH]cn1.O=C(O)/C=C\C(=O)O` (stereo not drawn) [Example 40, N-[5-(1H-imidazol-4-yl)-6,7,8,9-tetrahydro-5H-benzo[a]cyclohepten-1-yl]ethanesulfonamide, Maleate] came in with a melting point of 155 to 156 °C. The Ki in data set [1] (setting [4]) amounted to 10 µM. Further, the Ki in data set [2] (setting [5]) is 10 µM.
On to `Cc1noc(C)c1S(=O)(=O)Nc1cccc2c1CCCC2c1c[nH]cn1` (stereo not drawn) [Example 61, N-[5-(1H-imidazol-4-yl)-5,6,7,8-tetrahydro-1-naphthalenyl]-3,5-dimethyl-4-isoxazolesulfonamide], for which the Ki in data set [1] (setting [4]) and in data set [2] (setting [5]) was 10 µM each time.
With `CCS(=O)(=O)Nc1cccc2c1OCCC2c1c[nH]cn1` (stereo not drawn) [Example 79, N-[4-(1H-imidazol-4-yl)-3,4-dihydro-2H-chromen-8-yl]ethanesulfonamide], the Ki in data set [1] (setting [4]) is 10 µM; in data set [2] (setting [5]), 10 µM; in data set [3], 0.638 µM.
In turn, `CCS(=O)(=O)Nc1cccc2c1CCCC2c1c[nH]c(C)n1.O=C(O)/C=C\C(=O)O` (stereo not drawn) [Example 84, N-[5-(2-methyl-1H-imidazol-4-yl)-5,6,7,8-tetrahydro-1-naphthalenyl]ethanesulfonamide, Maleate] gave a melting point of 73 to 77 °C. In addition, the Ki in data set [1] (setting [4]) amounted to 10 µM. The Ki in data set [2] (setting [5]) is 10 µM. Also, in data set [3], the affinity corresponds to a Ki of 0.792 µM.
As for `CCS(=O)(=O)Nc1cccc2c1COC2c1c[nH]cn1.O=C(O)/C=C\C(=O)O` (stereo not drawn) [Example 87, N-[1-(1H-imidazol-4-yl)-1,3-dihydro-2-benzofuran-4-yl]ethanesulfonamide Maleate], the melting point lay in the range of 95 to 98 °C. In addition, the Ki in data set [1] turned out to be 10 µM. For the same compound, in data set [2], the Ki was 10 µM. Moreover, the Ki in data set [3] stood at 0.936 µM.
`CCS(=O)(=O)Nc1cccc2c1SCCC2c1c[nH]cn1.O=C(O)/C=C\C(=O)O` (stereo not drawn) [Example 89, N-[4-(1H-imidazol-4-yl)-3,4-dihydro-2H-thiochromen-8-yl]ethanesulfonamide Maleate] came in with a melting point of 248 to 251 °C. Besides, in data set [1] (setting [4]), the Ki was determined as 10 µM. In addition, in data set [2] (setting [5]), the inhibition constant Ki turned out to be 10 µM. The Ki in data set [3] was found to be 1.01 µM.
`C=C(c1cccc(NS(=O)(=O)CC(F)(F)F)c1)c1c[nH]cn1.O=C(O)/C=C\C(=O)O` [Example 91, 2,2,2-trifluoro-N-{3-[1-(1H-imidazol-4-yl)vinyl]phenyl}ethanesulfonamide Maleate] returned a melting point of 149 to 153 °C. The affinity in data set [1], expressed as Ki, was 10 µM. This compound also yielded a Ki in data set [2] of 10 µM. The Ki in data set [3] came out at 1.52 µM.
Compound `CCS(=O)(=O)Nc1cccc(C(=C(C)C)c2c[nH]cn2)c1` [Example 94, N-{3-[1-(1H-imidazol-4-yl)-2-methyl-1-propenyl]phenyl}ethanesulfonamide] came in with a melting point of 152 to 155 °C. For the same compound, in data set [1] (setting [4]), the Ki was 0.173 µM. Also, the Ki in data set [2] (setting [5]) worked out at 1.18 µM. The compound also had a Ki in data set [3] of 1.94 µM.
Turning to `CCS(=O)(=O)Nc1cc(C2CCCCC2)cc2c1CCCC2c1c[nH]cn1` (stereo not drawn) [Example 101, N-[3-cyclohexyl-5-(1H-imidazol-4-yl)-5,6,7,8-tetrahydro-1-naphthalenyl]ethanesulfonamide], the melting point lay within 207 to 209 °C. In data set [1], this compound yielded a Ki of 0.449 µM. This compound also gave a Ki in data set [2] of 0.886 µM. Also, the Ki in data set [3] came out at 0.269 µM.
As for `CN(C)S(=O)(=O)Nc1cccc2c1CCCC2c1c[nH]cn1` (stereo not drawn) [Example 111, N′-[5-(1H-imidazol-4-yl)-5,6,7,8-tetrahydro-1-naphthalenvyl]-N,N-dimethylsulfamide], the melting point is 208 to 210 °C. For the same compound, the Ki in data set [1] (setting [4]) was determined as 1.59 µM. Also, the Ki in data set [2] (setting [5]) came to 10 µM. The compound also gave a Ki in data set [3] of 0.579 µM.
With `CCN(C(=O)Nc1cccc2c1CCCC2c1c[nH]cn1)C(C)C` (stereo not drawn) [Example 118, N-ethyl-N′-[5-(1H-imidazol-4-yl)-5,6,7,8-tetrahydro-1-naphthalenyl]-N-isopropylurea], the Ki in data set [1] (setting [4]) turned out to be 0.92 µM; in data set [2] (setting [5]), 10 µM; in data set [3], 0.329 µM.
As for `COC(=O)Nc1cccc2c1CCCC2c1c[nH]cn1` (stereo not drawn) [Example 119, methyl 5-(1H-imidazol-4-yl)-5,6,7,8-tetrahydro-1-naphthalenylcarbamate], the Ki in data set [1] is 3.04 µM; in data set [2], 10 µM.
With `CCOC(=O)Nc1cccc2c1CCCC2c1c[nH]cn1` (stereo not drawn) [Example 120, ethyl 5-(1H-imidazol-4-yl)-5,6,7,8-tetrahydro-1-naphthalenylcarbamate], the Ki came out at 2.91 µM in data set [1] (setting [4]), 10 µM in data set [2] (setting [5]) and 0.164 µM in data set [3].
Turning to `CC(C)(OC(=O)Nc1cccc2c1CCCC2c1c[nH]cn1)C(Cl)(Cl)Cl` (stereo not drawn) [Example 122, 2,2,2-trichloro-1-dimethylethyl 5-(1H-imidazol-4-yl)-5,6,7,8-tetrahydro-1-naphthalenylcarbamate], the Ki is 1.27 µM in data set [1], 10 µM in data set [2] and 1.03 µM in data set [3].
For the compound `Cc1ccc(OC(=O)Nc2cccc3c2CCCC3c2c[nH]cn2)cc1` (stereo not drawn) [Example 124, 4-methylphenyl 5-(1H-imidazol-4-yl)-5,6,7,8-tetrahydro-1-naphthalenylcarbamate], the Ki in data set [1] is 0.787 µM; in data set [2] it was 1.47 µM; in data set [3] it was 0.451 µM.
Turning to `CCS(=O)(=O)Nc1cc(F)cc2c1CCCC2c1c[nH]cn1` (stereo not drawn) [Example 131, N-[3-fluoro-5-(1H-imidazol-4-yl)-5,6,7,8-tetrahydro-1-naphthalenyl]ethanesulfonamide], the figures for the Ki in data set [1] (setting [4]), in data set [2] (setting [5]) and in data set [3] were 2.16 µM, 10 µM and 0.09 µM, respectively.
